target: Peptidyl-prolyl cis-trans isomerase FKBP1A (Homo sapiens, UniProt P62942, F36V); assay: Binding affinity for Mutant F36V-FK506 binding protein by competitive assay based on fluorescence polarization.
Sequence (P62942 2-108 F37V limits assumed): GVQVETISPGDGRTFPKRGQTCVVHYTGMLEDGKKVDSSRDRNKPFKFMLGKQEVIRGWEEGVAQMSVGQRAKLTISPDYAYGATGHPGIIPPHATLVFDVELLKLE

SMILES | IC50 [µM]
CC[C@H](C(=O)N1CCCC[C@H]1C(=O)O[C@H](CCc1ccc(OC)c(OC)c1)c1cccc(OCC(=O)O)c1)c1ccccc1 | 0.04
CC[C@H](C(=O)N1CCCC[C@H]1C(=O)O[C@H](CCc1ccc(OC)c(OC)c1)c1cccc(OCC(=O)O)c1)c1cc(OC)c(OC)c(OC)c1 | 0.0018
C=CC[C@@H](C(=O)N1CCCC[C@H]1C(=O)OC(CCc1ccc(OC)c(OC)c1)c1cccc(OCC(=O)O)c1)c1cc(OC)c(OC)c(OC)c1 (stereo partly drawn) | 0.019
COc1ccc(CCC(OC(=O)[C@@H]2CCCCN2C(=O)[C@@H](C)c2ccccc2)c2cccc(OCC(=O)O)c2)cc1OC (stereo partly drawn) | 0.094
CCC[C@H](C(=O)N1CCCC[C@H]1C(=O)OC(CCc1ccc(OC)c(OC)c1)c1cccc(OCC(=O)O)c1)c1cc(OC)c(OC)c(OC)c1 (stereo partly drawn) | 0.0038
COc1ccc(CCC(OC(=O)[C@@H]2CCCCN2C(=O)[C@H](CC2CC2)c2cc(OC)c(OC)c(OC)c2)c2cccc(OCC(=O)O)c2)cc1OC (stereo partly drawn) | 0.126
COc1ccc(CCC(OC(=O)[C@@H]2CCCCN2C(=O)[C@H](c2ccccc2)C(C)C)c2cccc(OCC(=O)O)c2)cc1OC (stereo partly drawn) | 0.15
CC[C@@H](C(=O)N1CCCC[C@H]1C(=O)OC(CCc1ccc(OC)c(OC)c1)c1cccc(OCC(=O)O)c1)c1ccccc1 (stereo partly drawn) | 0.133
COc1ccc(CCC(OC(=O)[C@@H]2CCCCN2C(=O)[C@@H](c2cc(OC)c(OC)c(OC)c2)C(C)C)c2cccc(OCC(=O)O)c2)cc1OC (stereo partly drawn) | 0.065
COc1ccc(CCC(OC(=O)[C@@H]2CCCCN2C(=O)[C@@H](CC2CC2)c2cc(OC)c(OC)c(OC)c2)c2cccc(OCC(=O)O)c2)cc1OC (stereo partly drawn) | 0.0044
CCC[C@@H](C(=O)N1CCCC[C@H]1C(=O)OC(CCc1ccc(OC)c(OC)c1)c1cccc(OCC(=O)O)c1)c1cc(OC)c(OC)c(OC)c1 (stereo partly drawn) | 0.043
COc1ccc(CCC(OC(=O)[C@@H]2CCCCN2C(=O)[C@H](c2cc(OC)c(OC)c(OC)c2)C(C)C)c2cccc(OCC(=O)O)c2)cc1OC (stereo partly drawn) | 0.0058
COc1ccc(CCC(OC(=O)[C@@H]2CCCCN2C(=O)[C@@H](c2ccccc2)C(C)C)c2cccc(OCC(=O)O)c2)cc1OC (stereo partly drawn) | 0.019
C=CC[C@H](C(=O)N1CCCC[C@H]1C(=O)OC(CCc1ccc(OC)c(OC)c1)c1cccc(OCC(=O)O)c1)c1cc(OC)c(OC)c(OC)c1 (stereo partly drawn) | 0.0015
COc1ccc(CC[C@@H](OC(=O)[C@@H]2CCCCN2C(=O)Cc2ccccc2)c2cccc(OCC(=O)O)c2)cc1OC | 1.53
COc1ccc(CCC(OC(=O)[C@@H]2CCCCN2C(=O)[C@H](C)c2ccccc2)c2cccc(OCC(=O)O)c2)cc1OC (stereo partly drawn) | 0.59
CC[C@@H](C(=O)N1CCCC[C@H]1C(=O)OC(CCc1ccc(OC)c(OC)c1)c1cccc(OCC(=O)O)c1)c1cc(OC)c(OC)c(OC)c1 (stereo partly drawn) | 0.187
COc1ccc(CCC(OC(=O)[C@@H]2CCCCN2C(=O)C(c2ccccc2)c2ccccc2)c2cccc(OCC(=O)O)c2)cc1OC (stereo partly drawn) | 0.273

— ChEMBL document CHEMBL1132977 (J Med Chem, 2000)
